The record followed here is paper PMC5473940, “SAF-A Regulates Interphase Chromosome Structure through Oligomerization with Chromatin-Associated RNAs” (Cell, 2017).

Molecules are shown by their SMILES. pKd: −log10 of the molar value.

Holding throughout (format): binding
Assay [1] has as its target T1, SAF-A AAA+ domain (His-tagged AAA+ fragment) (Homo sapiens, UniProt Q00839).
T1 construct: gene HNRNPU; AAA+ domain fragment, N-terminal 6xHis in pET32a, E. coli BL21(DE3); exact borders not in text (AAA domain modelled as aa 469-653)
Briefly: intrinsic fluorescence quenching (ex […] nm, em […] nm).

Assay [2] addresses T2, FLAG-tagged full-length SAF-A (Homo sapiens, UniProt Q00839).
T2 construct: gene HNRNPU
Briefly: stabilisation of immuno-purified oligomer, native PAGE western blot. The settings on record: 1 mM nucleotide, 37 °C, 10 mM DTT to reverse cross-links.

The target of assay [3] is T3, SAF-A AAA+ domain (His-tagged AAA+ fragment) (Homo sapiens, UniProt Q00839, K510A, form not given).
T3 construct: gene HNRNPU; AAA+ domain fragment, N-terminal 6xHis in pET32a, E. coli BL21(DE3); exact borders not in text (AAA domain modelled as aa 469-653)
T3 sequence (Q00839 507-691 K510A limits assumed): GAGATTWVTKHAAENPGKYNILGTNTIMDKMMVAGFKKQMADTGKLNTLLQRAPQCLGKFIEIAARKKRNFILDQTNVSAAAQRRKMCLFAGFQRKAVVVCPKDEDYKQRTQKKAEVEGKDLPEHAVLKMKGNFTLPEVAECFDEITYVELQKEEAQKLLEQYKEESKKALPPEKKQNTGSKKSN
Put plainly: intrinsic fluorescence quenching (ex […] nm, em […] nm). Conditions: pH 7.5, 37 °C, 10 mM MgCl2, 125 mM NaCl, 5 mM DTT; Walker A mutant.

Assay [4] has as its target T4, SAF-A AAA+ domain (His-tagged AAA+ fragment) (Homo sapiens, UniProt Q00839, D580A, form not given).
T4 construct: gene HNRNPU; AAA+ domain fragment, N-terminal 6xHis in pET32a, E. coli BL21(DE3); exact borders not in text (AAA domain modelled as aa 469-653)
The description is as above. Conditions: pH 7.5, 37 °C, 10 mM MgCl2, 125 mM NaCl, 5 mM DTT; Walker B mutant.

T1 sequence (Q00839 488-672 limits assumed): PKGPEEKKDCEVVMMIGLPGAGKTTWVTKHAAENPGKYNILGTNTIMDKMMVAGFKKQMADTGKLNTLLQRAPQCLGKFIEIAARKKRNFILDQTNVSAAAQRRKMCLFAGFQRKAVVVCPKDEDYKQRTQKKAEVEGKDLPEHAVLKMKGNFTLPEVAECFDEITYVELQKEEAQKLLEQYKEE
T2 sequence (Q00839 2-806 isoform Q00839-2): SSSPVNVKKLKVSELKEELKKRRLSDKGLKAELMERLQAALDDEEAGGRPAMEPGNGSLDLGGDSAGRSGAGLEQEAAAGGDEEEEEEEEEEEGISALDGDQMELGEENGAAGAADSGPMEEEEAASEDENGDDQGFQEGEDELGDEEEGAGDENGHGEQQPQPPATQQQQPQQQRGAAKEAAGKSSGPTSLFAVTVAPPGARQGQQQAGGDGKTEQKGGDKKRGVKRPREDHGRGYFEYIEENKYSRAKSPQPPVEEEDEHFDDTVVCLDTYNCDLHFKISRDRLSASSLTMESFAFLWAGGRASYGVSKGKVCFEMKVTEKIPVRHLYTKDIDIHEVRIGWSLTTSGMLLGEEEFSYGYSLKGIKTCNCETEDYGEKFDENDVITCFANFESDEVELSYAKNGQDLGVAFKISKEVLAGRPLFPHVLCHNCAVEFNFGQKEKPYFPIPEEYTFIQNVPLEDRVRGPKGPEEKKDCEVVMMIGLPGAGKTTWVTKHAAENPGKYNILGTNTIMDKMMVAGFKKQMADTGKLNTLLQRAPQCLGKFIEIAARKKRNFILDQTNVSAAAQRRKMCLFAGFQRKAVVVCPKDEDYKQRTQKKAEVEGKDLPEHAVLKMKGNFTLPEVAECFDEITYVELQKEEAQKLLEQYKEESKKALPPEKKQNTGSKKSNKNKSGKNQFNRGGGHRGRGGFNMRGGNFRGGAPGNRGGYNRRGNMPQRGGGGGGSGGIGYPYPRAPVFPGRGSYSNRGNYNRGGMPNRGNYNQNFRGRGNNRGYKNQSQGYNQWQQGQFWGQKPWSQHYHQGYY
T4 sequence (Q00839 507-691 D580A limits assumed): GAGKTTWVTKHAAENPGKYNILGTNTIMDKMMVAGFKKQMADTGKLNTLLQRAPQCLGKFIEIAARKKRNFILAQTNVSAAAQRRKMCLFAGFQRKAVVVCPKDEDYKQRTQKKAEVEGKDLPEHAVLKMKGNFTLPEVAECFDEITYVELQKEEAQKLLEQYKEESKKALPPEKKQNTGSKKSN

Take `Nc1ncnc2c1ncn2[C@@H]1O[C@H](COP(=O)(O)OP(=O)(O)OP(=O)(O)O)[C@@H](O)[C@H]1O` [ATP]: the pKd in assay [1] is 4.42; in assay [4], 4.54. Also, the “stabilisation of immuno-purified oligomer, native PAGE western blot” value in assay [2] is on record as “ATP or ATPγS stabilized the oligomers”. The “ATP binding abrogated (no binding)” value in assay [3] is “Mutation of the Walker A motif abrogated ATP binding”.
